One test has as its target native CB1 receptors (Rattus norvegicus, UniProt P20272). Description: CB1 receptor rat binding assay ([3H]SR141716A, rat brain membranes). As to conditions: rat brain membranes, [3H]SR141716A; for Ki: read-out: Binding rat pKi (converted).
In the next test the target is CB1 (mutant) (Homo sapiens, UniProt P21554). Description: R-SAT functional receptor assay, CB1 (mutant, truncated after amino acid 417). The format is cell-based. Conditions: R-SAT CB1; for Emax: receptor form not stated, relative to SR141716 (100%), read-out: % Inhibition; for IC50 / pIC50: receptor form (mutant or wild-type) not stated.
Chain of CB1 (mutant) (P21554 1-417, change not shown): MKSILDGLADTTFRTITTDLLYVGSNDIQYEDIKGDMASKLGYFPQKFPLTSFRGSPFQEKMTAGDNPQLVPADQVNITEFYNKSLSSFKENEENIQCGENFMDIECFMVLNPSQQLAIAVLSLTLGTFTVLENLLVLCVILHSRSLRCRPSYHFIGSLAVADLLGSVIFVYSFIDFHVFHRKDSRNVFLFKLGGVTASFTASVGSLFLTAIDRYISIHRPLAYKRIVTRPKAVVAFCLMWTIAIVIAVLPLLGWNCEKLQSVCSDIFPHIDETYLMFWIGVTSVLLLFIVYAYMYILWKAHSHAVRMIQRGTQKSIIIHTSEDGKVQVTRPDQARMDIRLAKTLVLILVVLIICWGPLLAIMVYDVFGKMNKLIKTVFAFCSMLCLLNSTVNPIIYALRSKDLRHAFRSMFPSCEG
The mark [1] stands for this setting: Appendix A, read-out: pIC50 (converted).

The structures appear in SMILES notation. Like-named read-outs stand apart in the source and are kept apart here.

Chain of native CB1 receptors (P20272 whole entry, the tested form may be a part): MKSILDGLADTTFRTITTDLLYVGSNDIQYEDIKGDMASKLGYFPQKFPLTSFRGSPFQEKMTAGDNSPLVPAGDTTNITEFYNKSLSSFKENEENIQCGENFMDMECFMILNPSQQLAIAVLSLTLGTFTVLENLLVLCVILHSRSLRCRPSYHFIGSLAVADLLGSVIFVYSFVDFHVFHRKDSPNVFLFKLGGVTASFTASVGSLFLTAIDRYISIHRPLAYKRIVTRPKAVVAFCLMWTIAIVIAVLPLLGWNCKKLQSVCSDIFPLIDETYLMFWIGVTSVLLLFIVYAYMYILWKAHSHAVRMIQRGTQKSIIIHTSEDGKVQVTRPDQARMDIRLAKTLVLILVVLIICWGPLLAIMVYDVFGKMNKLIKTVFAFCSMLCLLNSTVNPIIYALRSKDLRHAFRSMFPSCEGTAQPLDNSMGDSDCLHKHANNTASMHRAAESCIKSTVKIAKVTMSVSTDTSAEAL

Take `CCCNC(=O)c1ccc2c(c1)N=C(c1ccc(OC)cc1)c1ccccc1S2` [drawing 1403]: on native CB1 receptors, the “Binding rat Inh %” value was 80% and the Ki was 0.0398 µM.
For the molecule `O=C(NCCc1ccncc1)c1ccc2c(c1)N=C(c1ccc(Cl)cc1)c1ccccc1S2` [drawing 1339], on native CB1 receptors, the “Binding rat Inh %” value is reported as 96% and the Ki is 0.0251 µM.
Turning to `O=C(NCc1ccccc1)c1ccc2c(c1)N=C(c1ccccc1F)c1ccccc1S2` [drawing 1365], the Ki at native CB1 receptors was 0.0316 µM.
Same read-out and setting: the figure for `O=C(NCCc1ccccc1)c1ccc2c(c1)N=C(N1CCCCC1)c1ccccc1S2` [drawing 1470] is 0.0631 µM.
Turning to `O=C(NCCc1cccc(Cl)c1)c1ccc2c(c1)N=C(c1ccccc1)c1ccccc1S2` [drawing 1457], the Ki on native CB1 receptors is 0.00794 µM.
For `O=C(NCCc1ccccc1)c1ccc2c(c1)N=C(c1ccc(Cl)cc1)c1ccccc1S2` [drawing 1295], the Ki on native CB1 receptors was 0.00251 µM.
On to `COc1ccc(C2=Nc3cc(C(=O)NN4[C@H](C)CCC[C@@H]4C)ccc3Sc3ccccc32)cc1` [drawing 1432], for which, at native CB1 receptors, the “Binding rat Inh %” value stood at 88% and the Ki is 0.00631 µM.
For the molecule `Cc1ccc(CNC(=O)c2ccc3c(c2)N=C(c2cccc(F)c2)c2ccccc2S3)o1` [drawing 1481], on native CB1 receptors, the “Binding rat Inh %” value was determined as 88% and the Ki is 0.01 µM.
Turning to `O=C(NCCc1ccc(Cl)cc1)c1ccc2c(c1)N=C(N1CCC(F)(F)CC1)c1ccccc1S2` [drawing 1492], on native CB1 receptors, the Ki was 0.0631 µM.
Take `O=C(NCc1cccs1)c1ccc2c(c1)N=C(c1ccccn1)c1ccccc1S2` [drawing 1381]: on native CB1 receptors, the “Binding rat Inh %” value turned out to be 109% and the Ki is 0.0316 µM.
Taken in the same sequence, the figures for `O=C(NCCC(F)(F)F)c1ccc2c(c1)N=C(c1ccc(Cl)s1)c1ccccc1S2` [drawing 1273] were 85% and 0.002 µM.
Taken in the same sequence, the figures for `COc1ccc(C2=Nc3cc(C(=O)NC4CCCC4)ccc3Sc3ccccc32)cc1` [drawing 1364] were 71% and 0.0316 µM.
With `C[C@@H]1CCC[C@H](C)N1NC(=O)c1ccc2c(c1)N=C(c1ccccc1F)c1ccccc1S2` [drawing 1495], on native CB1 receptors, the “Binding rat Inh %” value is reported as 78% and the Ki was 0.0631 µM.
With `CCN(CCNC(=O)c1ccc2c(c1)N=C(C1CCCCC1)c1ccccc1S2)c1ccccc1` [drawing 1296], the Ki at native CB1 receptors is 0.00251 µM.
`CCCCNC(=O)c1ccc2c(c1)N=C(c1ccc(Cl)cn1)c1cc(F)ccc1S2` [drawing 1230]: at native CB1 receptors, the “Binding rat Inh %” value is 83% and the Ki was 0.0158 µM.
As to `O=C(NCCc1cccnc1)c1ccc2c(c1)N=C(c1ccc(Cl)cc1)c1ccccc1S2` [drawing 1334], on native CB1 receptors, the “Binding rat Inh %” value stood at 103% and the Ki was 0.0251 µM.
As for `O=C(NCc1ccccc1Cl)c1ccc2c(c1)N=C(c1ccc(F)cc1)c1ccccc1S2` [drawing 1291], the Ki at native CB1 receptors is 0.02 µM.
With `O=C(NCCc1ccccc1)c1ccc2c(c1)N=C(c1ccccc1)c1ccccc1S2` [drawing 1332], the Ki on native CB1 receptors is 0.0251 µM.
Same read-out and setting: to `CC(CNC(=O)c1ccc2c(c1)N=C(c1ccc(Cl)cc1)c1ccccc1S2)c1ccccc1` (stereo not shown) [drawing 1288] belongs 0.002 µM.
Consider `O=C(NC1CCCC1)c1ccc2c(c1)N=C(c1ccc(Cl)cc1)c1ccccc1S2` [drawing 1436], for which, on native CB1 receptors, the “Binding rat Inh %” value worked out at 89% and the Ki was 0.0501 µM.
For the molecule `O=C(NCCC(F)(F)F)c1ccc2c(c1)N=C(c1ccc(Cl)cc1F)c1ccccc1S2` [drawing 1377], at native CB1 receptors, the “Binding rat Inh %” value was 97% and the Ki is 0.00501 µM.
With `O=C(NCc1cccc(Cl)c1)c1ccc2c(c1)N=C(N1CCCCC1)c1cc(F)ccc1S2` [drawing 1181], the Ki at native CB1 receptors is 0.0126 µM.
As to `O=C(NCc1ccccc1Cl)c1ccc2c(c1)N=C(c1ccc(Cl)cc1)c1ccccc1S2` [drawing 1089], the Emax on CB1 (mutant) (Appendix A) was 95%. This molecule also showed an IC50 against CB1 (mutant) (pIC50, Appendix A) of 0.0316 µM.
For the molecule `O=C(NCc1ccncc1)c1ccc2c(c1)N=C(N1CCCCC1)c1ccccc1S2`, the IC50 on CB1 (mutant) (setting [1]) is 0.501 µM. Besides, the Emax at CB1 (mutant) (Appendix A) turned out to be 81%.
For the molecule `CONC(=O)c1ccc2c(c1)N=C(c1sccc1C)c1ccccc1S2`, at CB1 (mutant) (setting [1]), the IC50 is 0.501 µM. Besides, the Emax on CB1 (mutant) (Appendix A) worked out at 45%.
Regarding `O=C(NOc1cccc(Cl)c1)c1ccc2c(c1)N=C(C1CCCCC1)c1cc(F)ccc1S2`, at CB1 (mutant) (setting [1]), the IC50 is 0.0398 µM. At CB1 (mutant) (Appendix A), the Emax is 100%.
`O=C(NCCCc1ccccc1)c1ccc2c(c1)N=C(c1cccc(Cl)c1)c1ccccc1S2` [drawing 615]: on CB1 (mutant) (setting [1]), the IC50 is 0.00398 µM. Besides, the Emax at CB1 (mutant) (Appendix A) was found to be 110%.
With `CC(CNC(=O)c1ccc2c(c1)N=C(c1ccc(Cl)cc1)c1cc(F)ccc1S2)c1ccccc1` (stereo not shown) [drawing 1173], on CB1 (mutant) (setting [1]), the IC50 was 0.0398 µM. For the same molecule, at CB1 (mutant) (Appendix A), the Emax amounted to 110%.
Taken in the same sequence, the figures for `O=C(NCCc1ccncc1)c1ccc2c(c1)N=C(c1ccccc1Cl)c1ccccc1S2` were 0.316 µM and 82%.
In the case of `Cc1csc(CNC(=O)c2ccc3c(c2)N=C(c2ccc(F)cc2)c2ccccc2S3)c1` [drawing 732], the IC50 on CB1 (mutant) (setting [1]) was 0.0794 µM. Besides, the Emax on CB1 (mutant) (Appendix A) came out at 80%.
`O=C(NCCc1ccccn1)c1ccc2c(c1)N=C(c1cccc(Cl)c1)c1ccccc1S2` [drawing 905]: the IC50 at CB1 (mutant) (setting [1]) is 0.0158 µM. In addition, the Emax on CB1 (mutant) (Appendix A) came to 103%.
In the case of `O=C(NN1CCCCC1)c1ccc2c(c1)N=C(c1ccc(Cl)s1)c1ccccc1S2` [drawing 823], the Emax on CB1 (mutant) (Appendix A) came out at 97%. At CB1 (mutant) (pIC50, Appendix A), this molecule showed an IC50 of 0.0126 µM.
`O=C(NCCc1ccc(Cl)cc1)c1ccc2c(c1)N=C(c1cccc(Cl)c1)c1ccccc1S2` [drawing 569]: the IC50 at CB1 (mutant) (setting [1]) is 0.00251 µM. For the same molecule, the Emax at CB1 (mutant) (Appendix A) amounted to 106%.
On the same counts, the results for `CC(C)CNC(=O)c1ccc2c(c1)N=C(c1ccc(Cl)cc1)c1ccc(Cl)cc1S2` [drawing 1113] are 0.0398 µM and 106%.
As for `O=C(NCCc1cccc(Cl)c1)c1ccc2c(c1)N=C(c1ccc(F)cc1)c1ccccc1S2` [drawing 919], on CB1 (mutant) (setting [1]), the IC50 was 0.0158 µM. Moreover, the Emax on CB1 (mutant) (Appendix A) is 98%.
With `CC(C)CNC(=O)c1ccc2c(c1)N=C(c1ccc(F)cc1)c1ccccc1S2` [drawing 677], the IC50 on CB1 (mutant) (setting [1]) is 0.00631 µM. In addition, on CB1 (mutant) (Appendix A), the Emax was determined as 107%.
On the same counts, the results for `N#Cc1ccc(C2=Nc3cc(C(=O)NCc4ccccn4)ccc3Sc3ccccc32)cc1` are 0.0794 µM and 99%.
Taken in the same sequence, the figures for `O=C(NCCc1ccccc1)c1ccc2c(c1)N=C(c1ccc(F)cc1)c1ccccc1S2` [drawing 839] were 0.0126 µM and 103%.
As for `CCCC1=Nc2cc(C(=O)NCCCN3CCN(C)CC3)ccc2Sc2ccccc21`, the IC50 at CB1 (mutant) (setting [1]) is 2.51 µM. For the same molecule, the Emax at CB1 (mutant) (Appendix A) was found to be 120%.
On the same counts, the results for `O=C(NCCc1cccnc1)c1ccc2c(c1)N=C(c1ccc(Cl)s1)c1ccccc1S2` [drawing 1029] are 0.0251 µM and 110%.
Taken in the same sequence, the figures for `O=C(NNCc1ccccc1)c1ccc2c(c1)N=C(c1cccc(Br)c1)c1ccccc1S2` [drawing 928] were 0.251 µM and 86%.
As for `C[C@@H]1CCC[C@H](C)N1NC(=O)c1ccc2c(c1)N=C(c1ccc(Cl)c(Cl)c1)c1ccccc1S2` [drawing 739], on CB1 (mutant) (Appendix A), the Emax came to 114%. This molecule showed an IC50 on CB1 (mutant) (pIC50, Appendix A) of 0.00794 µM.
On to `CCCCC(=O)c1ccc2c(c1)N=C(C1CCCCC1)c1ccccc1S2`, for which the IC50 on CB1 (mutant) (setting [1]) was 0.0501 µM. Further, the Emax at CB1 (mutant) (Appendix A) came out at 37%.
With `CCCCNC(=O)c1ccc2c(c1)N=C(c1ccc(Cl)cc1)c1ccc(Cl)cc1S2` [drawing 766], on CB1 (mutant) (Appendix A), the Emax came out at 90%. Moreover, at CB1 (mutant) (pIC50, Appendix A), the IC50 is 0.1 µM.
`Cc1ccsc1C1=Nc2cc(C(=O)NCCc3cccnc3)ccc2Sc2ccccc21` [drawing 694]: the IC50 at CB1 (mutant) (setting [1]) was 0.0631 µM. Also, the Emax on CB1 (mutant) (Appendix A) amounted to 121%.
With `O=C(NCCCc1ccccc1)c1ccc2c(c1)N=C(N1CCCCC1)c1ccccc1S2` [drawing 903], the IC50 on CB1 (mutant) (setting [1]) is 0.0158 µM. Moreover, on CB1 (mutant) (Appendix A), the Emax stood at 104%.
On the same counts, the results for `O=C(NCCc1cccnc1)c1ccc2c(c1)N=C(c1cccc(Cl)c1)c1ccccc1S2` [drawing 857] are 0.0126 µM and 100%.
Taken in the same sequence, the figures for `COCCNC(=O)c1ccc2c(c1)N=C(c1cccc(F)c1)c1ccccc1S2` [drawing 1025] were 0.0251 µM and 115%.
As for `O=C(NCCC(F)(F)F)c1ccc2c(c1)N=C(c1ccc(Cl)cc1)c1ccccc1S2` [drawing 705], on CB1 (mutant) (Appendix A), the Emax was found to be 91%. For the same molecule, the IC50 on CB1 (mutant) (pIC50, Appendix A) is 0.00794 µM.
In the case of `COCCNC(=O)c1ccc2c(c1)N=C(c1ncccc1C)c1ccccc1S2`, at CB1 (mutant) (Appendix A), the pIC50 amounted to 1.0 and the Emax was -6%.
Take `O=C(NCCc1cccc(Cl)c1)c1ccc2c(c1)N=C(N1CCCCC1)c1ccccc1S2` [drawing 973]: at CB1 (mutant) (setting [1]), the IC50 was 0.02 µM. The Emax at CB1 (mutant) (Appendix A) worked out at 108%.
As for `CCCNC(=O)c1ccc2c(c1)N=C(c1ccccn1)c1ccccc1S2`, at CB1 (mutant) (setting [1]), the IC50 was 0.0398 µM. For the same molecule, the Emax on CB1 (mutant) (Appendix A) was determined as 116%.
Regarding `COc1ccc(C2=Nc3cc(C(=O)NCc4ccccn4)ccc3Sc3ccccc32)cc1`, the IC50 at CB1 (mutant) (setting [1]) is 0.0631 µM. Further, the Emax on CB1 (mutant) (Appendix A) came out at 93%.
In the case of `CON(C)C(=O)c1ccc2c(c1)N=C(c1ncccc1C)c1ccccc1S2`, at CB1 (mutant) (Appendix A), the pIC50 came out at 1.0 and the Emax was determined as 0%.
In the case of `C[C@@H]1CCC[C@H](C)N1NC(=O)c1ccc2c(c1)N=C(c1cccc(F)c1)c1ccccc1S2` [drawing 727], the IC50 at CB1 (mutant) (setting [1]) is 0.00794 µM. The Emax on CB1 (mutant) (Appendix A) amounted to 120%.
On the same counts, the results for `O=C(NCCc1ccccn1)c1ccc2c(c1)N=C(c1ccc(Cl)cc1F)c1ccccc1S2` [drawing 562] are 0.0501 µM and 96%.
On to `CCCC1=Nc2cc(C(=O)NCCCN3CCN(C4CCCCC4)CC3)ccc2Sc2ccccc21`, for which the IC50 on CB1 (mutant) (setting [1]) is 0.631 µM. The Emax at CB1 (mutant) (Appendix A) is 118%.
Take `Cc1ccsc1C1=Nc2cc(C(=O)NCc3ccncc3)ccc2Sc2ccccc21`: the IC50 at CB1 (mutant) (setting [1]) is 0.158 µM. Also, the Emax at CB1 (mutant) (Appendix A) was determined as 92%.

Source of the values: patent US20080090805A1, “CB-1 MODULATING COMPOUNDS AND THEIR USE” (ACADIA PHARMACEUTICALS INC., priority 2005, published 2008).
